From PubChem BioAssay (NCI)
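Each compound was tested at five concentrations against cells in 96-well plates for 48 hours. Abbreviation: GI50, concentration required for 50% inhibition of growth. TGI marks complete inhibition of growth.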

Key:
Experiment in all cases: DTP human tumour cell line panel, 48 h; in the data active = GI50 below about 0.43 µM; inactive = the rest
HCT-15 colon = tested on: HCT-15 colon
CAKI-1 renal = tested on: CAKI-1 renal
A549 NSCLC = tested on: A549 NSCLC
HOP-18 NSCLC = tested on: HOP-18 NSCLC
ACHN renal = tested on: ACHN renal
HT29 colon = tested on: HT29 colon
NCI-H23 lung = tested on: NCI-H23 lung
NCI-H226 lung = tested on: NCI-H226 lung
SW-620 colon = tested on: SW-620 colon
IGROV1 ovarian = tested on: IGROV1 ovarian
SN12C renal = tested on: SN12C renal
SK-MEL-28 melanoma = tested on: SK-MEL-28 melanoma
TK-10 renal = tested on: TK-10 renal
UACC-62 melanoma = tested on: UACC-62 melanoma
LOX IMVI melanoma = tested on: LOX IMVI melanoma
MOLT-4 leukemia = tested on: MOLT-4 leukemia
SF-539 CNS = tested on: SF-539 CNS
DMS 114 small cell lung = tested on: DMS 114 small cell lung
RPMI-8226 leukemia = tested on: RPMI-8226 leukemia
SF-268 CNS = tested on: SF-268 CNS
UO-31 renal = tested on: UO-31 renal
SR leukemia = tested on: SR leukemia
RXF 393 renal = tested on: RXF 393 renal
K-562 leukemia = tested on: K-562 leukemia
KM12 colon = tested on: KM12 colon
HCC-2998 colon = tested on: HCC-2998 colon
OVCAR-8 ovarian = tested on: OVCAR-8 ovarian
SF-295 CNS = tested on: SF-295 CNS
SNB-78 CNS = tested on: SNB-78 CNS
SK-MEL-5 melanoma = tested on: SK-MEL-5 melanoma
SK-MEL-2 melanoma = tested on: SK-MEL-2 melanoma
U251 CNS = tested on: U251 CNS
OVCAR-4 ovarian = tested on: OVCAR-4 ovarian
NCI-H460 lung = tested on: NCI-H460 lung
SNB-19 CNS = tested on: SNB-19 CNS
786-0 renal = tested on: 786-0 renal
XF 498 CNS = tested on: XF 498 CNS
M14 melanoma = tested on: M14 melanoma
HCT-116 colon = tested on: HCT-116 colon
MALME-3M melanoma = tested on: MALME-3M melanoma
SK-OV-3 ovarian = tested on: SK-OV-3 ovarian
NCI-H522 lung = tested on: NCI-H522 lung
DMS 273 small cell lung = tested on: DMS 273 small cell lung
LXFL 529 NSCLC = tested on: LXFL 529 NSCLC
UACC-257 melanoma = tested on: UACC-257 melanoma
OVCAR-5 ovarian = tested on: OVCAR-5 ovarian
CCRF-CEM leukemia = tested on: CCRF-CEM leukemia
M19-MEL melanoma = tested on: M19-MEL melanoma
EKVX NSCLC = tested on: EKVX NSCLC
KM20L2 colon = tested on: KM20L2 colon
COLO 205 colon = tested on: COLO 205 colon
A498 renal = tested on: A498 renal
SNB-75 CNS = tested on: SNB-75 CNS
OVCAR-3 ovarian = tested on: OVCAR-3 ovarian
RXF-631 renal = tested on: RXF-631 renal
DLD-1 colon = tested on: DLD-1 colon
HOP-92 NSCLC = tested on: HOP-92 NSCLC
HOP-62 NSCLC = tested on: HOP-62 NSCLC
HL-60(TB) leukemia = tested on: HL-60(TB) leukemia

N/N=C(/Cc1nc2ccc(C(=O)c3ccccc3)cc2[nH]c1=O)C(=O)Nc1ccc([N+](=O)[O-])cc1[N+](=O)[O-]
71.5 µM: TGI (OVCAR-4 ovarian)
inactive: GI50 (HCT-15 colon) > 100 µM | GI50 (A549 NSCLC) > 100 µM | GI50 (ACHN renal) > 100 µM | GI50 (HT29 colon) > 100 µM | GI50 (NCI-H23 lung) > 100 µM | GI50 (NCI-H226 lung) > 100 µM | GI50 (IGROV1 ovarian) > 100 µM | GI50 (SN12C renal) > 100 µM | GI50 (SK-MEL-28 melanoma) > 100 µM | GI50 (LOX IMVI melanoma) > 100 µM | GI50 (MOLT-4 leukemia) > 100 µM | GI50 (DMS 114 small cell lung) > 100 µM | GI50 (RPMI-8226 leukemia) > 100 µM | GI50 (SF-268 CNS) > 100 µM | GI50 (SR leukemia) > 100 µM | GI50 (K-562 leukemia) > 100 µM | GI50 (HCC-2998 colon) > 100 µM | GI50 (SF-295 CNS) > 100 µM | GI50 (SNB-78 CNS) > 100 µM | GI50 (SK-MEL-2 melanoma) > 100 µM | GI50 (U251 CNS) > 100 µM | GI50 (NCI-H460 lung) > 100 µM | GI50 (M14 melanoma) > 100 µM | GI50 (HCT-116 colon) > 100 µM | GI50 (NCI-H522 lung) > 100 µM | GI50 (DMS 273 small cell lung) > 100 µM | GI50 (LXFL 529 NSCLC) > 100 µM | GI50 (OVCAR-5 ovarian) > 100 µM | GI50 (CCRF-CEM leukemia) > 100 µM | GI50 (M19-MEL melanoma) > 100 µM | GI50 (COLO 205 colon) > 100 µM | GI50 (A498 renal) > 100 µM
> 100 µM: TGI (HCT-15 colon) | TGI (CAKI-1 renal) | TGI (A549 NSCLC) | TGI (HOP-18 NSCLC) | TGI (ACHN renal) | TGI (HT29 colon) | TGI (NCI-H23 lung) | TGI (NCI-H226 lung) | TGI (SW-620 colon) | TGI (IGROV1 ovarian) | TGI (SN12C renal) | TGI (SK-MEL-28 melanoma) | TGI (TK-10 renal) | TGI (UACC-62 melanoma) | TGI (LOX IMVI melanoma) | TGI (MOLT-4 leukemia) | TGI (SF-539 CNS) | TGI (DMS 114 small cell lung) | TGI (RPMI-8226 leukemia) | TGI (SF-268 CNS) | TGI (UO-31 renal) | TGI (SR leukemia) | TGI (RXF 393 renal) | TGI (K-562 leukemia) | TGI (KM12 colon) | TGI (HCC-2998 colon) | TGI (OVCAR-8 ovarian) | TGI (SF-295 CNS) | TGI (SNB-78 CNS) | TGI (SK-MEL-5 melanoma) | TGI (SK-MEL-2 melanoma) | TGI (U251 CNS) | TGI (NCI-H460 lung) | TGI (SNB-19 CNS) | TGI (786-0 renal) | TGI (XF 498 CNS) | TGI (M14 melanoma) | TGI (HCT-116 colon) | TGI (MALME-3M melanoma) | TGI (SK-OV-3 ovarian) | TGI (NCI-H522 lung) | TGI (DMS 273 small cell lung) | TGI (LXFL 529 NSCLC) | TGI (UACC-257 melanoma) | TGI (OVCAR-5 ovarian) | TGI (CCRF-CEM leukemia) | TGI (M19-MEL melanoma) | TGI (EKVX NSCLC) | TGI (KM20L2 colon) | TGI (COLO 205 colon) | TGI (A498 renal)

CC1C2C=C(O)C(=O)C(C2=O)C1c1ccccc1 (stereo not drawn)
> 100 µM: TGI (HCT-15 colon) | TGI (CAKI-1 renal) | TGI (A549 NSCLC) | TGI (ACHN renal) | TGI (HT29 colon) | TGI (NCI-H23 lung) | TGI (NCI-H226 lung) | TGI (SW-620 colon) | TGI (IGROV1 ovarian) | TGI (SK-MEL-28 melanoma) | TGI (TK-10 renal) | TGI (UACC-62 melanoma) | TGI (SNB-75 CNS) | TGI (LOX IMVI melanoma) | TGI (MOLT-4 leukemia) | TGI (SF-539 CNS) | TGI (RPMI-8226 leukemia) | TGI (SF-268 CNS) | TGI (UO-31 renal) | TGI (SR leukemia) | TGI (RXF 393 renal) | TGI (K-562 leukemia) | TGI (KM12 colon) | TGI (OVCAR-3 ovarian) | TGI (HCC-2998 colon) | TGI (OVCAR-8 ovarian) | TGI (SF-295 CNS) | TGI (SNB-78 CNS) | TGI (SK-MEL-5 melanoma) | TGI (SK-MEL-2 melanoma) | TGI (U251 CNS) | TGI (OVCAR-4 ovarian) | TGI (RXF-631 renal) | TGI (DLD-1 colon) | TGI (SNB-19 CNS) | TGI (786-0 renal) | TGI (HOP-92 NSCLC) | TGI (M14 melanoma) | TGI (MALME-3M melanoma) | TGI (SK-OV-3 ovarian) | TGI (HOP-62 NSCLC) | TGI (NCI-H522 lung) | TGI (DMS 273 small cell lung) | TGI (LXFL 529 NSCLC) | TGI (UACC-257 melanoma) | TGI (OVCAR-5 ovarian) | TGI (CCRF-CEM leukemia) | TGI (M19-MEL melanoma) | TGI (EKVX NSCLC) | TGI (KM20L2 colon) | TGI (COLO 205 colon) | TGI (A498 renal)

CCN(CC)CSc1nc2ccccc2[nH]1
> 100 µM: TGI (A549 NSCLC) | TGI (ACHN renal) | TGI (HT29 colon) | TGI (NCI-H23 lung) | TGI (NCI-H226 lung) | TGI (IGROV1 ovarian) | TGI (SK-MEL-28 melanoma) | TGI (TK-10 renal) | TGI (MOLT-4 leukemia) | TGI (DMS 114 small cell lung) | TGI (UO-31 renal) | TGI (SR leukemia) | TGI (RXF 393 renal) | TGI (KM12 colon) | TGI (OVCAR-8 ovarian) | TGI (SF-295 CNS) | TGI (SNB-78 CNS) | TGI (U251 CNS) | TGI (NCI-H460 lung) | TGI (SNB-19 CNS) | TGI (HOP-92 NSCLC) | TGI (M14 melanoma) | TGI (HCT-116 colon) | TGI (SK-OV-3 ovarian) | TGI (HOP-62 NSCLC) | TGI (NCI-H522 lung) | TGI (DMS 273 small cell lung) | TGI (HL-60(TB) leukemia) | TGI (UACC-257 melanoma) | TGI (OVCAR-5 ovarian) | TGI (CCRF-CEM leukemia) | TGI (EKVX NSCLC) | TGI (A498 renal)

CC1CCC2CC(=O)OC([C@@H]3C(=O)O[C@@H](C4=CCCC4)C4C(C)CCC43)C12 (stereo partly drawn)
65.1 µM: TGI (HL-60(TB) leukemia)
> 100 µM: TGI (HCT-15 colon) | TGI (CAKI-1 renal) | TGI (A549 NSCLC) | TGI (HOP-18 NSCLC) | TGI (ACHN renal) | TGI (HT29 colon) | TGI (NCI-H23 lung) | TGI (NCI-H226 lung) | TGI (SW-620 colon) | TGI (IGROV1 ovarian) | TGI (SN12C renal) | TGI (SK-MEL-28 melanoma) | TGI (TK-10 renal) | TGI (UACC-62 melanoma) | TGI (SNB-75 CNS) | TGI (LOX IMVI melanoma) | TGI (MOLT-4 leukemia) | TGI (SF-539 CNS) | TGI (DMS 114 small cell lung) | TGI (RPMI-8226 leukemia) | TGI (SF-268 CNS) | TGI (UO-31 renal) | TGI (SR leukemia) | TGI (RXF 393 renal) | TGI (K-562 leukemia) | TGI (KM12 colon) | TGI (OVCAR-3 ovarian) | TGI (HCC-2998 colon) | TGI (OVCAR-8 ovarian) | TGI (SF-295 CNS) | TGI (SNB-78 CNS) | TGI (SK-MEL-5 melanoma) | TGI (SK-MEL-2 melanoma) | TGI (U251 CNS) | TGI (NCI-H460 lung) | TGI (DLD-1 colon) | TGI (SNB-19 CNS) | TGI (786-0 renal) | TGI (XF 498 CNS) | TGI (M14 melanoma) | TGI (HCT-116 colon) | TGI (MALME-3M melanoma) | TGI (SK-OV-3 ovarian) | TGI (HOP-62 NSCLC) | TGI (NCI-H522 lung) | TGI (DMS 273 small cell lung) | TGI (LXFL 529 NSCLC) | TGI (UACC-257 melanoma) | TGI (CCRF-CEM leukemia) | TGI (M19-MEL melanoma) | TGI (EKVX NSCLC) | TGI (KM20L2 colon) | TGI (COLO 205 colon)
